According to patent publication US20090203685A1, “ANTI-PROLIFERATIVE COMPOUNDS FROM A 3-ARYL-COUMARINE OR 3-ARYL-QUINOLIN-2-ONE AND USES THEREOF” (EOS (ETHICAL ONCOLOGY SCIENCE) S.P.A., priority 2006, published 2009):
Several values for one entry are separate records, joined by “and”; a condition that tells them apart may be missing. Equal values may be shown once. Where a name gives a salt, the structure may show the parent alone.

Key:
U937 cells = assay: Proliferation test ViaLight HS, U937 cells (Example 8); format: cell-based, human; settings: 72 h incubation, range = multiple experiments, otherwise individual experiments
Method: 2C Proliferation test ViaLight® HS High Sensitivity Cytotoxicity and Cell Proliferation BioAssay Kit
This protocol allows the determination of the cytostatic and cytotoxic activities of compounds to be tested on mammalian cells in culture and was carried out essentially according to the manufacturer's recommendations.
Cells are suspended in 15 mL of their respective media and are enumerated. They are then diluted in their media in order to obtain: • 2500 cells per 90 μL per well for MRC5 cells • 5000 cells per 90 μL per well for all other cell lines. Cells are then seeded in a 96 well plate, and incubated at least 4 hours in the incubator at 37° C. in 5% CO2.
The molecules to be tested are diluted in DMEM with DMSO in order to obtain the following dilutions: • dilution at 250 μM/1% DMSO • dilution at 50 μM/1% DMSO • dilution at […] • dilution at 2 μM/1% DMSO • dilution at 400 nM/1% DMSO • dilution at 80 nM/1% DMSO For each well comprising 90 μL of cell suspension, 10 μL of a solution of the compound to be tested is added, with the 6 different concentrations. The plate is then incubated during 72 hours. One control plate is contacted with 10 μL of DMEM 1% DMSO, without compound to be tested. 50 μL of lysis buffer (test Vialight® lysis buffer) is added in each well of the control plate and the plate is incubated 10 minutes under hood.
Then, 100 μL of test buffer (test Vialight® test buffer) is added in each well and the control plate is incubated during 2 minutes. The luminescence is read in each well. The mean luminescence for each type of cells is called T0.
After the 72 h incubation, in order to determine the viability, 50 μL of lysis buffer (test Vialight® lysis buffer) is added in each well of the plates and the plates are incubated 10 minutes under hood.
Then, 100 μL of test buffer (test Vialight® test buffer) is added in each well and the plates are incubated during 2 minutes. The luminescence is read in each well. For each type of cell, the mean luminescence in the well not containing the compound is called C72 and the mean luminescence in well containing a given concentration of a compound to be tested is called T72. For each dilution (concentration of compound to be tested), T0 and T72 values are compared.
The graph is plotted for the different concentrations of compound and • GI50 (50% of growth inhibitory) is determined, this is the dose producing 50% of cell growth (intersection at Y=50); • TGI (total growth inhibitory) is determined on the graph, this is the dose producing the total arrest of the cell growth (intersection at Y=0); and • LC50 (50% of lethal concentration) is determined, this is the dose producing the death of 50% of the cells (intersection at Y=−50).
Following the protocol described in Example 2C, different compounds according to the invention have been tested for their cytostatic and cytotoxic activities on mammalian cells in culture (specifically U937 cells).
The GI50 (50% of growth inhibitory) has been determined for all the following compounds, i.e. the dose producing 50% of cell growth inhibition.
Where the GI50 provided is in the form of a range, it means that multiple experiments, whose results fall within the range indicated, were performed. Otherwise, results of individual experiments are provided.

[1] = target: T1, interaction between 6×His-Bcl-xL and GST-BF8 (Homo sapiens, UniProt Q07817); assay: Pull down assay, Bcl-xL/BF8 in vitro interaction; format: binding; settings: 50 μM, 5% DMSO; Western blot
T1 construct: made in house; host or cells: E. coli
Method: FIG. 3: Inhibition of the interaction between Bcl-xL and BF8, a peptide aptamer that targets the hydrophobic groove of BCL-2 family members. […]
C+: 6×His-Bcl-xL captured by GST-BF8, in presence of 5% DMSO. (02): 6×His-Bcl-xL captured by GST-BF8, in presence of 50 μM of compound 02 (in 5% DMSO). (01): 6×His-Bcl-xL captured by GST-BF8, in presence of 50 μM of compound 01 (in 5% DMSO).
A peptide aptamer (dubbed BF8) has been selected against the anti-apoptotic protein Bfl1, member of the BCL-2 family. […] Two lines of evidence indicate that BF8 binds the hydrophobic groove of anti-apoptotic BCL-2-like proteins. First, the amino-acid sequence of its variable region bears similarities with the sequence of the BH3 domains of pro-apoptotic members of the BCL-2 family (such as Bak or Bax), known to bind the anti-apoptotic proteins via this hydrophobic groove. Second, BF8 no longer binds a mutated variant of Bfl-1 that bears an amino-acid substitution within the said hydrophobic groove.
A Bcl-xL/BF8 in vitro interaction assay was developed to examine the capacity of the compounds of the invention to disrupt this interaction by competition with the peptide aptamer. 6×His-Bcl-xL and GST-BF8 recombinant fusion proteins were expressed in E. coli and purified using affinity chromatography. […]

[2] = tested on: melanoma, breast, cervical, prostate, colon tumor cells; settings: cited from earlier work
[3] = in vivo; cited from earlier work

T1 sequence (Q07817 whole entry): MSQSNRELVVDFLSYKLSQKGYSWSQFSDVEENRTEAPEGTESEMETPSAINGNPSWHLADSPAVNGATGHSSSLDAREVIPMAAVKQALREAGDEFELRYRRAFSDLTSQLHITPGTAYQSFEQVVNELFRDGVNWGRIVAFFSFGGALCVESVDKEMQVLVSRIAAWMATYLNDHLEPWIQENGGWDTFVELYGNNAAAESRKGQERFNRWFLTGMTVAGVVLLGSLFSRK

SMILES | GI50 (U937 cells; Homo sapiens, U-937, 72 h) [nM] | other results
COc1cc(N(C(C)=O)S(=O)(=O)c2cc(C)oc2C)ccc1-c1cc2ccccc2oc1=O [Compound 23, 2,5-dimethyl-furan-3-sulfonic acid acetyl-[3-methoxy-4-(2-oxo-2H-chromen-3-yl)-phenyl]-amide] | ~500 | –
COc1cc(NC(=S)Nc2ccc(N3CCOCC3)cc2)ccc1-c1cc2ccccc2oc1=O [Compound 20, 1-[3-methoxy-4-(2-oxo-2H-chromen-3-yl)-phenyl]-3-(4-morpholin-4-yl-phenyl)-thiourea] | 1100 | –
COc1cc(NS(=O)(=O)c2cc(C)oc2C)ccc1-c1cc2ccccc2oc1=O [Compound 13, N-[3-methoxy-4-(2-oxo-2H-chromen-3-yl)phenyl]-2,5-dimethylfuran-3-sulfonamide] | 100 | –
COc1cc(NC(=N)NC(=O)c2ccccc2)ccc1-c1cc2ccccc2oc1=O [Compound 07, N-(imino{[3-methoxy-4-(2-oxo-2H-chromen-3-yl)phenyl]amino}methyl)benzamide] | 630 | GI50 (U937 cells): 800 nM
COc1cc(NC(=N)NC(=O)c2ccccc2)ccc1-c1cc2ccccc2[nH]c1=O [Compound 22, N-Benzoyl-N′-[3-methoxy-4-(2-oxo-1,2-dihydro-quinolin-3-yl)-phenyl]-guanidine] | 1000 | –
COc1cc(NC(=S)NC(=O)/C=C/c2ccco2)ccc1-c1cc2ccccc2[nH]c1=O [Compound 15, (2E)-3-(2-furyl)-N-({[3-methoxy-4-(2-oxo-1,2-dihydroquinolin-3-yl)phenyl]amino}carbonothioyl)acrylamide] | – | GI50 (U937 cells): 63 nM and 210 nM
COc1cc(/N=C(/NC(=O)/C=C/c2ccco2)SC)ccc1-c1cc2ccccc2oc1=O [Compound 14, methyl N-[(2E)-3-(2-furyl)prop-2-enoyl]-Ar-[3-methoxy-4-(2-oxo-2H-chromen-3-yl)phenyl]imidothiocarbamate] | 220 | –
COc1cc(N(C)C(=N)NC(=O)/C=C/c2ccco2)ccc1-c1cc2ccccc2oc1=O [Compound 19, N′-((E)-3-furan-2-yl-acryloyl)-N-[3-methoxy-4-(2-oxo-2H-chromen-3-yl)-phenyl]-N-methyl-guanidine] | 9200 | –
COc1cc(NC(=O)Nc2cccc(N(C)C)c2)ccc1-c1cc2ccccc2oc1=O [Compound 18, 1-(3-dimethylamino-phenyl)-3-[3-methoxy-4-(2-oxo-2H-chromen-3-yl)-phenyl]-urea.HCl] | 150 | –
COC1=CC(c2cc3ccccc3[nH]2)=N/C1=C\c1[nH]c(C)cc1C [GX15-070] | – | Growth of melanoma, breast, cervical, prostate, colon tumor cells [2]: inhibit growth; MTD (maximal tolerated dose) [3]: approx 16 mg/kg

The next lines start with results.

GI50 (U937 cells; Homo sapiens, U-937, 72 h) [nM] | SMILES | other results
33 | COc1cc(/N=C(\SC)N(C)C(=O)/C=C/c2ccco2)ccc1-c1cc2ccccc2oc1=O [Compound 24, 1-((E)-3-furan-2-yl-acryloyl)-3-[3-methoxy-4-(2-oxo-2H-chromen-3-yl)-phenyl]-1,2-dimethyl-isothiourea] | –
410 | COc1cc(/N=C(\SC)N(C)C(=O)c2ccc(F)cc2)ccc1-c1cc2ccccc2oc1=O [Compound 25, 1-(4-fluoro-benzoyl)-3-[3-methoxy-4-(2-oxo-2H-chromen-3-yl)-phenyl]-1,2-dimethyl-isothiourea] | –
1600 to 2100 | COc1cc(NC(=N)NC(=O)/C=C/c2ccco2)ccc1-c1cc2ccccc2oc1=O [Compound 12, (2E)-3-(2-furyl)-N-(imino{[3-methoxy-4-(2-oxo-2H-chromen-3-yl)phenyl]amino}methyl)acrylamide] | –
920 | COc1cc(NC(=S)NC(=O)c2ccc(F)cc2)ccc1-c1cc2ccccc2oc1=O [Compound 05, 4-fluoro-N-({[3-methoxy-4-(2-oxo-2H-chromen-3-yl)phenyl]amino}carbonothioyl)benzamide] | GI50 (U937 cells): 1500 nM
500 to 600 | COC(=O)c1ccc(S(=O)(=O)Nc2ccc(-c3cc4ccccc4oc3=O)c(OC)c2)n1C [Compound 09, methyl 5-({[3-methoxy-4-(2-oxo-2H-chromen-3-yl)phenyl]amino}sulfonyl)-1-methyl-1H-pyrrole-2-carboxylate] | –
610 | COc1cc(NC(=O)Nc2ccccc2)ccc1-c1cc2ccccc2oc1=O [Compound 03, 1-[3-methoxy-4-(2-oxo-2H-chromen-3-yl)-phenyl]-3-phenyl-urea] | –
600 to 860 | COc1cc(NC(=S)NC(=O)c2ccccc2)ccc1-c1cc2ccccc2oc1=O [Compound 02, N-({[3-methoxy-4-(2-oxo-2H-chromen-3-yl)phenyl]amino}carbonothioyl)benzamide] | Inhibition of the in vitro interaction between 6×His-Bcl-xL and GST-BF8 [1]: inhibit
1200 | COc1cc(NC(=S)Nc2ccc(N3CCOCC3)nc2)ccc1-c1cc2ccccc2oc1=O [Compound 08, 1-[3-methoxy-4-(2-oxo-2H-chromen-3-yl)-phenyl]-3-(6-morpholin-4-yl-pyridin-3-yl)-thiourea] | –
~90 | COc1cc(NC(=S)NC(=O)/C=C/c2ccco2)ccc1-c1cc2ccccc2n(CCO)c1=O [Compound 21, 1-((E)-3-furan-2-yl-acryloyl)-3-{4-[1-(2-hydroxy-ethyl)-2-oxo-1,2-dihydro-quinolin-3-yl]-3-methoxy-phenyl}-thiourea] | –
320 | COc1cc(NC(=O)Nc2ccc(N(C)C)cc2)ccc1-c1cc2ccccc2oc1=O [Compound 06, 1-(4-dimethylamino-phenyl)-3-[3-methoxy-4-(2-oxo-2H-chromen-3-yl)-phenyl]-urea.HCl] | GI50 (U937 cells): 580 nM
45 | COc1cc(NC(=S)NC(=O)/C=C/c2ccco2)ccc1-c1cc2ccccc2n(C)c1=O [Compound 17, (2E)-3-(2-furyl)-N-({[3-methoxy-4-(1-methyl-2-oxo-1,2-dihydroquinolin-3-yl)phenyl]amino}carbonothioyl)acrylamide] | –
